Reference: patent US10947242B2, “[1,2,4]triazolo[1,5and#8208;A]pyrimidine compounds as PDE2 inhibitors” (Janssen Pharmaceutica NV, priority 2016, dated 2021)
pIC50: −log10 of the molar value. Where two headings read alike, the source gives them in different places.

Assays:
[1] = target: T1, Human recombinant PDE2A (hPDE2A) (Homo sapiens, UniProt O00408); experiment: In vitro assay PDE2A (SPA, 3H-cGMP hydrolysis); assay type: biochemical; details: for IC50: read-out: hPDE2A pIC50 (converted); for Emax: read-out: hPDE2A Emax
T1 construct: His tag (inferred from metal chelate purification); made in house; host or cells: Sf9 insect cells (baculovirus)

[2] = target: T2, Human recombinant PDE10A (hPDE10A) (Homo sapiens, UniProt Q9Y233); experiment: In vitro assay PDE10A, human clone (SPA, 3H-cAMP hydrolysis); assay type: biochemical; details: human clone (h), default; for Emax: read-out: hPDE10A2 Emax; for IC50: read-out: hPDE10A2 pIC50 (converted)
T2 construct: His tag (inferred from metal chelate purification); made in house; host or cells: Sf9 insect cells (baculovirus)
Method in brief: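 Human recombinant PDE10A was expressed in Sf9 cells via baculovirus and incubated with compound in 50 mM Tris pH 7.8, 8.3 mM MgCl2, 1.7 mM EGTA. Substrate was 60 nM cAMP plus 0.008 μCi 3H-cAMP for 60 min at room temperature, read by SPA scintillation counting. Controls used 1% DMSO, and blanks omitted enzyme.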

[3] = target: T3, Human recombinant PDE3A (hPDE3A) (Homo sapiens, UniProt Q14432); experiment: In vitro assay PDE3A (SPA, 3H-cAMP hydrolysis); assay type: biochemical; details: for IC50: hPDE3B pIC50, read-out: pIC50 (converted); for Emax: read-out: hPDE3B Emax, read-out: Emax;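 on all read-outs here: the method names PDE3A and the table heading PDE3B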
T3 construct: purchased Scottish Biomedical; host or cells: Sf9 insect cells
Method in brief: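 Human PDE3A, cloned from brain, as partially purified Sf9 lysate. Substrate 0.4 μM cAMP plus [3H]-cAMP (2.4 μCi/ml final) in 50 mM Tris pH 7.8, 8.3 mM MgCl2, 1.7 mM EGTA, 60 min at room temperature, 1% DMSO final. Hydrolysis read by SPA scintillation counting against no-enzyme blanks and DMSO controls.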

PDE2A = target: T4, PDE2A (Rattus norvegicus, UniProt Q01062); experiment: PDE2 occupancy by test compounds, ex-vivo autoradiography with [3H]B-17a; assay type: in vivo, Male Wistar rats; details: for receptor occupancy at 10 mg/kg: percentage receptor occupancy, ex-vivo autoradiography, striatum
T4 construct: Twenty μm-thick striatal sections were cut; from tissue; host or cells: rat brain, striatal sections
T4 sequence (Q01062 1-928): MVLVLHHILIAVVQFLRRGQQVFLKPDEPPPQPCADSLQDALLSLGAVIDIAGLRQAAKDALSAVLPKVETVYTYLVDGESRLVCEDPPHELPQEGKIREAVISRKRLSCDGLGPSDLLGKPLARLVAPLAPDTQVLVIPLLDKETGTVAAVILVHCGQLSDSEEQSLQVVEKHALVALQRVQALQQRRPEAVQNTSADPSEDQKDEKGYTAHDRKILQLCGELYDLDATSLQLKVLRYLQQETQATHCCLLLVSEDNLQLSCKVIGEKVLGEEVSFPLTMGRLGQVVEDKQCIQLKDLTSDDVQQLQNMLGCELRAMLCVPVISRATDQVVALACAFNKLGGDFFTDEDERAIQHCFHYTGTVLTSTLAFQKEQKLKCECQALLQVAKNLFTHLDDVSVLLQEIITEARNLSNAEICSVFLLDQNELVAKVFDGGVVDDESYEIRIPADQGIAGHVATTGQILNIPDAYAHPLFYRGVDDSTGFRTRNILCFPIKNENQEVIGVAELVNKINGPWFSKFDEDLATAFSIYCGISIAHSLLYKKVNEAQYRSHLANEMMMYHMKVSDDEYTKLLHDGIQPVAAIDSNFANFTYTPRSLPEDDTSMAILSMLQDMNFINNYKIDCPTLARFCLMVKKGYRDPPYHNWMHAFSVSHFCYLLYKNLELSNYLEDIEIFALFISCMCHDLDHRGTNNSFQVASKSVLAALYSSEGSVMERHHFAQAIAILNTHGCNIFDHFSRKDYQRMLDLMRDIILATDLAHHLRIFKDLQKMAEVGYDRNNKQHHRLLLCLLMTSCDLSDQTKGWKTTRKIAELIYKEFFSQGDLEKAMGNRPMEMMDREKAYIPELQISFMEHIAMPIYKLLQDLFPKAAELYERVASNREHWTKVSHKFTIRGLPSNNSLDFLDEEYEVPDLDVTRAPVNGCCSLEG

[4] = human recombinant PDE2A, 10 μM cGMP substrate

T2 sequence (Q9Y233 267-1055): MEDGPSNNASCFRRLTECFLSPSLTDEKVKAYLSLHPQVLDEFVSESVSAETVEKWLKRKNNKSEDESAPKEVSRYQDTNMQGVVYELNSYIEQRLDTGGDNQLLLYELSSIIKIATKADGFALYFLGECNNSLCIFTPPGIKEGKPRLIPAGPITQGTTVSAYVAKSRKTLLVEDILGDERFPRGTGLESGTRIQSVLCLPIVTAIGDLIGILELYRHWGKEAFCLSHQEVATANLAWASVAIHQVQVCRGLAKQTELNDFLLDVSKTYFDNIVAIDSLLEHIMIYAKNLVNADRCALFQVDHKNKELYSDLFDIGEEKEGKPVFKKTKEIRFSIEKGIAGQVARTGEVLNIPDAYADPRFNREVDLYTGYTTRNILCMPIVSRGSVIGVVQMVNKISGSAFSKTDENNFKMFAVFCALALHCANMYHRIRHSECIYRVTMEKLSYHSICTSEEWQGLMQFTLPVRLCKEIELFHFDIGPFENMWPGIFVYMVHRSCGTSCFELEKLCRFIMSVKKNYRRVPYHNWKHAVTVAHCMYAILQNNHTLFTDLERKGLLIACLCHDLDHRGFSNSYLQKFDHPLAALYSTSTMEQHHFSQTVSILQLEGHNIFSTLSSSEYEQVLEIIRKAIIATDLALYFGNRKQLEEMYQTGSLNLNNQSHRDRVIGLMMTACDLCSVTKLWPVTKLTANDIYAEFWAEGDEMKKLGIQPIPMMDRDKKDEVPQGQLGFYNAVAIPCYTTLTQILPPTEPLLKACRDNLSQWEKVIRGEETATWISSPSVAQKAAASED
T1 sequence (O00408 whole entry): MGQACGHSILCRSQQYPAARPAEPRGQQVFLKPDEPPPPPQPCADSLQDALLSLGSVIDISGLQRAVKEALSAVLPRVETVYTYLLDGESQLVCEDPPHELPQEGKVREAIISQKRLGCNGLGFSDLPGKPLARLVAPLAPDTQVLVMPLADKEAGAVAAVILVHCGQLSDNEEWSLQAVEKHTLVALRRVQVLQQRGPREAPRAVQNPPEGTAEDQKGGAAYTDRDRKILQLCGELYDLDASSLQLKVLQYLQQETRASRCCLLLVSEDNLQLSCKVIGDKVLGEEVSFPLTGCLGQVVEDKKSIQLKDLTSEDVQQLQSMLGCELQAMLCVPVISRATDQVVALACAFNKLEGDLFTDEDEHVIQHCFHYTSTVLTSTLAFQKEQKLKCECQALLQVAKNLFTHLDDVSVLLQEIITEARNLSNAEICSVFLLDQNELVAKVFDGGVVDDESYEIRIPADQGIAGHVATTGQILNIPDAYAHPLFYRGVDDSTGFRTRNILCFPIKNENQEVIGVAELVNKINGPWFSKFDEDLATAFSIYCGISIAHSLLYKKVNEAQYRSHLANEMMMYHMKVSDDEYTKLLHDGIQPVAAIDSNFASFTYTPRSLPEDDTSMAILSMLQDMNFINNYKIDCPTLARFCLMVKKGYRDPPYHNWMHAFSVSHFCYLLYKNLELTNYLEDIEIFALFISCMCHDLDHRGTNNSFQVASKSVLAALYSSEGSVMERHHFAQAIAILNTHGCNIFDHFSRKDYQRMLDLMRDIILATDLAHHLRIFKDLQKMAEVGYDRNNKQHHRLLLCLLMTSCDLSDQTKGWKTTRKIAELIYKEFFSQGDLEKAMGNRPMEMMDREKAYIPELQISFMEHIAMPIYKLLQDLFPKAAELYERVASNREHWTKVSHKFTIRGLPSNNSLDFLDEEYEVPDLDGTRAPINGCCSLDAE
T3 sequence (Q14432 whole entry): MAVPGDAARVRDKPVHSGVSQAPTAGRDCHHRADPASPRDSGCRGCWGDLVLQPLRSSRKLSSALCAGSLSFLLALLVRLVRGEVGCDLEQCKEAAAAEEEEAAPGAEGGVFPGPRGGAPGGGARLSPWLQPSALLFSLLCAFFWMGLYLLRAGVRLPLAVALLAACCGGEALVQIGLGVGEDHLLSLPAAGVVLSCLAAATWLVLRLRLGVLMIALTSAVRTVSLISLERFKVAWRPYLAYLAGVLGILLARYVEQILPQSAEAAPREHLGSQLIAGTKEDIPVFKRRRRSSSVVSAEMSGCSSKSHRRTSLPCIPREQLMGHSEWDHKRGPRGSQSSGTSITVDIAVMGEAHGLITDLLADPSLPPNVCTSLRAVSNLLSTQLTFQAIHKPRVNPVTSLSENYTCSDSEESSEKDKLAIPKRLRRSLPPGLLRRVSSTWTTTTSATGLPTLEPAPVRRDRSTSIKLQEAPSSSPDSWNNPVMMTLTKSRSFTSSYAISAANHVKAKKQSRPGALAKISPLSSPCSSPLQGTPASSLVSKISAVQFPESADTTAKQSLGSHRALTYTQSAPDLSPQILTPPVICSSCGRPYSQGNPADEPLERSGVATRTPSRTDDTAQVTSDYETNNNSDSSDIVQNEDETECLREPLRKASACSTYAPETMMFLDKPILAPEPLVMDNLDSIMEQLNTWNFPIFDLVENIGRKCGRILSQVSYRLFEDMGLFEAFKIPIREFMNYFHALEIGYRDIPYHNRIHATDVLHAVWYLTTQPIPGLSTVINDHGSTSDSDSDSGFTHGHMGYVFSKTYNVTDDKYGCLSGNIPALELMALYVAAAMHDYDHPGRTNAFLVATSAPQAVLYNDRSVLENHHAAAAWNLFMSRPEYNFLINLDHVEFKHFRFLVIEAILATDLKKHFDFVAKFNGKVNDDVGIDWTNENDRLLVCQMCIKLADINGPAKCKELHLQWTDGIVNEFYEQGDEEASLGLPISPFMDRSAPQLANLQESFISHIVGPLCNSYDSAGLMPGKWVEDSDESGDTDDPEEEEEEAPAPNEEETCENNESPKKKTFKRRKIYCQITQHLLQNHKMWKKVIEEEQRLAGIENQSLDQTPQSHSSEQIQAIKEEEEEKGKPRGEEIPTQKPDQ

Row | IC50 [1, 4] [nM] | Emax ([1]; human recombinant PDE2A) [%] | Emax [1] [%] | IC50 [1] [nM] | Emax [2] [%] | IC50 [2] [nM] | IC50 [3] [nM] | Emax [3] [%] | receptor occupancy at 10 mg/kg (PDE2A; po, route PO (oral)) [%] | ED50 (PDE2A; route PO (oral), drug dose producing 50% receptor occupancy, read-out: PDE Occupancy ED50) [mg/kg] | receptor occupancy at 10 mg/kg (PDE2A; sc, route SC (subcutaneous)) [%] | SMILES | pIC50 ([1]; hPDE2A pIC50) | pIC50 ([1]; hPDE2A pIC50, human recombinant PDE2A, 10 μM cGMP substrate)
1 | 33.9 | 101 | 101 | 33.9 | 18 | > 10000 | > 10000 | 9 | 28 |  |  | Cc1cc(C(=O)N2CC[C@@H](C)[C@](F)(c3cc(C(F)F)nc4ncnn34)C2)cc(C)n1 [Compound 82] |  | 
2 | 3.16 | 101 | 101 | 3.16 | 89 | 708 | 7410 | 30 | 45 | 14.1 |  | Cc1cc(C(=O)N2CC[C@@H](C)[C@H](c3cc(C(F)F)nc4ncnn34)C2)c(F)cn1 [Compound 84] |  | 
3 | 6.46 | 100 | 100 | 6.46 | 88 | 1200 | 7760 | 37 |  |  | 1 | Cc1ccc(C(=O)N2CC[C@@H](C)[C@H](c3cc(C(F)F)nc4ncnn34)C2)nc1C [Compound 85] |  | 
4 | 0.355 | 101 | 101 | 0.355 | 102 | 19.5 | 214 | 98 |  |  | 73 | C[C@@H]1CCN(C(=O)c2ccn3cccc3c2)C[C@H]1c1cc(C(F)F)nc2ncnn12 [Compound 90] |  | 
5 | 0.372 | 100 | 100 | 0.372 | 94 | 22.4 | 708 | 61 | -7 |  |  | C[C@@H]1CCN(C(=O)c2cc(OC(F)F)cc(C3CC3)c2)C[C@H]1c1cc(C(F)F)nc2ncnn12 [Compound 91] |  | 
6 | 0.55 | 100 | 100 | 0.55 | 95 | 33.1 | 398 | 73 | 1 |  |  | C[C@@H]1CCN(C(=O)c2ccc3c(c2)OCCC3)C[C@H]1c1cc(C(F)F)nc2ncnn12 [Compound 96] |  | 
7 | 0.603 | 100 | 100 | 0.603 | 100 | 9.55 | 2090 | 87 | 1 |  |  | Cc1cc([C@@H]2CN(C(=O)c3ccc4nccn4c3)CC[C@H]2C)n2ncnc2n1 [Compound 99] |  | 
8 | 0.661 | 101 | 101 | 0.661 | 98 | 57.5 | 4790 | 70 |  |  | 43 | Cc1cc(C(=O)N2CC[C@@H](C)[C@H](c3cc(C(F)F)nc4ncnn34)C2)cc(C(C)C)n1 [Compound 101] |  | 
9 | 0.708 | 99 | 99 | 0.708 | 100 | 18.2 | 87.1 | 100 |  |  | 42 | C[C@@H]1CCN(C(=O)c2ccc(C3CC3)c(F)c2)C[C@H]1c1cc(C(F)F)nc2ncnn12 [Compound 103] |  | 
10 | 0.912 | 100 | 100 | 0.912 | 99 | 81.3 | 4170 | 61 | 29 |  |  | Cc1cc(C(=O)N2CC[C@@H](C)[C@H](c3cc(C(F)F)nc4ncnn34)C2)cc(OC(C)C)n1 [Compound 107] |  | 

Row | SMILES | IC50 [1, 4] [nM] | Emax ([1]; human recombinant PDE2A) [%] | Emax [1] [%] | IC50 [1] [nM] | Emax [2] [%] | IC50 [2] [nM] | IC50 [3] [nM] | Emax [3] [%] | receptor occupancy at 10 mg/kg (PDE2A; po, route PO (oral)) [%] | ED50 (PDE2A; route PO (oral), drug dose producing 50% receptor occupancy, read-out: PDE Occupancy ED50) [mg/kg] | receptor occupancy at 10 mg/kg (PDE2A; sc, route SC (subcutaneous)) [%] | pIC50 ([1]; hPDE2A pIC50) | pIC50 ([1]; hPDE2A pIC50, human recombinant PDE2A, 10 μM cGMP substrate)
11 | Cc1cc(C(=O)N2CC[C@@H](C)[C@H](c3cc(C(F)F)nc4ncnn34)C2)cc(Cl)n1 [Compound 83] |  |  | 100 |  | 98 | 97.7 | 7940 | 58 | 82 |  |  | 9.03 | 9.03
